In PMC13128454, “Mutant p53 protein accumulation is selectively targetable by proximity-inducing drugs” (Nature Chemical Biology, 2025):
Like-named read-outs stand apart in the source and are kept apart here.

Assays:
Format in all cases: cell-based
HepG2 cells = test: CellTiter-Glo cell viability
Method: (§1) Cells were plated in 384-well plates (typically 1,500 cells per well) with varying concentrations of compounds, with a total volume of 50 μl per well. CTG reagent was added (25 μl) to the solutions, mixed and read out using an EnVision 2105 multimode plate reader.

DU145 cells = test: CellTiter-Glo cell viability
Method: as §1

MCF7 cells = test: CellTiter-Glo cell viability
Method: as §1

LNCaP cells = test: CellTiter-Glo cell viability; settings: for mean_norm (normalized viability): LNCAP, 4 day
Method: as §1

[1] = CellTiter-Glo cell viability; settings: human, read-out: mean_norm (normalized viability)
Method: as §1

Huh7 cells = test: CellTiter-Glo cell viability
Method: as §1

MFE296 cells = test: CellTiter-Glo cell viability
Method: as §1

NUGC-3 cells = test: CellTiter-Glo cell viability; settings: NUGC3
Method: as §1

[2] = Homo sapiens, 96 h, 4 day treatment

**Q.** What does the source list for CC[C@@H]1C(=O)N(C)c2cnc(Nc3ccc(C(=O)NCCOCCOCCOCCOCCC(=O)N4CCC(Nc5cccc6c5cc(C#CCNc5ccc(S(C)(=O)=O)cc5OC)n6CC(F)(F)F)CC4)cc3OC)nc2N1C1CCCC1 [p53-01, PMV6-PEG4-BI2536]?
**A.** p5301_AUC_to_10uM (HepG2 cells): 0.9503; mean_norm (normalized viability) (HepG2 cells; Concentration 39.0625, 4 day): 0.9684; mean_norm (normalized viability) (HepG2 cells; Concentration 78.125, 4 day): 0.9673; mean_norm (normalized viability) (HepG2 cells; Concentration 156.25, 4 day): 0.8732; mean_norm (normalized viability) (HepG2 cells; Concentration 312.5, 4 day): 0.9657; mean_norm (normalized viability) (HepG2 cells; Concentration 625, 4 day): 0.8895; mean_norm (normalized viability) (HepG2 cells; Concentration 1250, 4 day): 0.9491; mean_norm (normalized viability) (HepG2 cells; Concentration 2500, 4 day): 0.8943; mean_norm (normalized viability) (HepG2 cells; Concentration 5000, 4 day): 1.008; mean_norm (normalized viability) (HepG2 cells; Concentration 10000, 4 day): 0.9189; mean_norm (normalized viability) (HepG2 cells; Concentration 20000, 4 day): 0.9567; IC50 (HepG2 cells; [2]): > 20 µM; p5301_AUC_to_10uM (DU145 cells): 0.9088; IC50 (DU145 cells; Homo sapiens, DU-145, 96 h, 4 day treatment): > 20 µM; p5301_AUC_to_10uM (MCF7 cells): 0.5585; mean_norm (normalized viability) (MCF7 cells; Concentration 39.0625, 4 day): 1.014; mean_norm (normalized viability) (MCF7 cells; Concentration 78.125, 4 day): 0.9684; mean_norm (normalized viability) (MCF7 cells; Concentration 156.25, 4 day): 0.9955; mean_norm (normalized viability) (MCF7 cells; Concentration 312.5, 4 day): 1.001; mean_norm (normalized viability) (MCF7 cells; Concentration 625, 4 day): 0.97; IC50 (MCF7 cells; [2]): 2.81 µM; IC50 (LNCaP cells; Homo sapiens, 96 h, LNCaP, 4 day treatment): 14.1 µM; mean_norm (normalized viability) (LNCaP cells; Concentration 5000): 0.7565; mean_norm (normalized viability) (LNCaP cells; Concentration 10000): 0.7384; mean_norm (normalized viability) (LNCaP cells; Concentration 20000): 0.4932; p5301_AUC_to_10uM (LNCaP cells; LNCaP): 0.8069; viability at 4 day ([1]; DU145 cells, Concentration 39.0625, 4 day): 104%; viability at 4 day ([1]; DU145 cells, Concentration 78.125, 4 day): 101%; viability at 4 day ([1]; DU145 cells, Concentration 156.25, 4 day): 97.4%; viability at 4 day ([1]; DU145 cells, Concentration 312.5, 4 day): 96.2%; viability at 4 day ([1]; DU145 cells, Concentration 625, 4 day): 97.2%; viability at 4 day ([1]; DU145 cells, Concentration 1250, 4 day): 98.7%; viability at 4 day ([1]; DU145 cells, Concentration 2500, 4 day): 98.2%; viability at 4 day ([1]; DU145 cells, Concentration 5000, 4 day): 91.3%; viability at 4 day ([1]; DU145 cells, Concentration 10000, 4 day): 79.5%; viability at 4 day ([1]; DU145 cells, Concentration 20000, 4 day): 76.4%; viability at 4 day ([1]; Huh7 cells, Concentration 39.0625, 4 day): 110%; viability at 4 day ([1]; Huh7 cells, Concentration 78.125, 4 day): 104%; viability at 4 day ([1]; Huh7 cells, Concentration 156.25, 4 day): 109%; viability at 4 day ([1]; Huh7 cells, Concentration 312.5, 4 day): 104%; viability at 4 day ([1]; Huh7 cells, Concentration 625, 4 day): 108%; viability at 4 day ([1]; Huh7 cells, Concentration 1250, 4 day): 104%; viability at 4 day ([1]; Huh7 cells, Concentration 2500, 4 day): 107%; viability at 4 day ([1]; Huh7 cells, Concentration 5000, 4 day): 100%; viability at 4 day ([1]; Huh7 cells, Concentration 10000, 4 day): 102%; viability at 4 day ([1]; Huh7 cells, Concentration 20000, 4 day): 83.1%; viability at 4 day ([1]; LNCaP cells, LNCAP, Concentration 39.0625, 4 day): 96.3%; viability at 4 day ([1]; LNCaP cells, LNCAP, Concentration 78.125, 4 day): 93%; viability at 4 day ([1]; LNCaP cells, LNCAP, Concentration 156.25, 4 day): 94.9%; viability at 4 day ([1]; LNCaP cells, LNCAP, Concentration 312.5, 4 day): 97.9%; viability at 4 day ([1]; LNCaP cells, LNCAP, Concentration 625, 4 day): 108%; viability at 4 day ([1]; LNCaP cells, LNCAP, Concentration 1250, 4 day): 102%; viability at 4 day ([1]; LNCaP cells, LNCAP, Concentration 2500, 4 day): 87.3%; viability at 4 day ([1]; MCF7 cells, Concentration 1250, 4 day): 88.6%; viability at 4 day ([1]; MCF7 cells, Concentration 2500, 4 day): 64.8%; viability at 4 day ([1]; MCF7 cells, Concentration 5000, 4 day): 49.8%; viability at 4 day ([1]; MCF7 cells, Concentration 10000, 4 day): 36.9%; viability at 4 day ([1]; MCF7 cells, Concentration 20000, 4 day): 29.2%; viability at 4 day ([1]; NUGC-3 cells, NUGC3, Concentration 39.0625, 4 day): 101%; viability at 4 day ([1]; NUGC-3 cells, NUGC3, Concentration 78.125, 4 day): 98%; viability at 4 day ([1]; NUGC-3 cells, NUGC3, Concentration 156.25, 4 day): 103%; viability at 4 day ([1]; NUGC-3 cells, NUGC3, Concentration 312.5, 4 day): 98.2%; viability at 4 day ([1]; NUGC-3 cells, NUGC3, Concentration 625, 4 day): 91.1%; viability at 4 day ([1]; NUGC-3 cells, NUGC3, Concentration 1250, 4 day): 79.9%; viability at 4 day ([1]; NUGC-3 cells, NUGC3, Concentration 2500, 4 day): 53.4%; viability at 4 day ([1]; NUGC-3 cells, NUGC3, Concentration 5000, 4 day): 42.5%; viability at 4 day ([1]; NUGC-3 cells, NUGC3, Concentration 10000, 4 day): 39.3%; viability at 4 day ([1]; NUGC-3 cells, NUGC3, Concentration 20000, 4 day): 32.6%; p5301_AUC_to_10uM (Huh7 cells): 1; IC50 (Huh7 cells; Homo sapiens, Huh-7, 96 h, 4 day treatment): > 20 µM; p5301_AUC_to_10uM (MFE296 cells): 0.5186; mean_norm (normalized viability) (MFE296 cells; Concentration 39.0625, 4 day): 1.0133; mean_norm (normalized viability) (MFE296 cells; Concentration 78.125, 4 day): 1.079; mean_norm (normalized viability) (MFE296 cells; Concentration 156.25, 4 day): 1.012; mean_norm (normalized viability) (MFE296 cells; Concentration 312.5, 4 day): 1.043; mean_norm (normalized viability) (MFE296 cells; Concentration 625, 4 day): 0.9978; mean_norm (normalized viability) (MFE296 cells; Concentration 1250, 4 day): 0.7559; mean_norm (normalized viability) (MFE296 cells; Concentration 2500, 4 day): 0.6581; mean_norm (normalized viability) (MFE296 cells; Concentration 5000, 4 day): 0.4955; mean_norm (normalized viability) (MFE296 cells; Concentration 10000, 4 day): 0.246; IC50 (MFE296 cells; Homo sapiens, MFE-296, 96 h, 4 day treatment): 4.32 µM; IC50 (NUGC-3 cells; Homo sapiens, NUGC-3, 96 h, 4 day treatment): 1.71 µM; p5301_AUC_to_10uM (NUGC-3 cells): 0.5108
